Laboratory results published in the NIST ThermoML archive (doi:10.1016/j.jct.2013.04.014).
Numbers after ± are expanded uncertainties.

Columns and labels:
[1] = xn = mol fraction of the nth substance listed; settings: 298.2 K; for surface tension liquid-gas: Pendant drop shape; for mass density: 101.33 kPa, Liquid, Vibrating tube method
[2] = 298.2 K; for surface tension liquid-gas: Pendant drop shape; for mass density: 101.33 kPa, Liquid, Vibrating tube method

CCC[N+]1(C)CCCCC1.O=S(=O)([N-]S(=O)(=O)C(F)(F)F)C(F)(F)F + CCCC[n+]1ccn(C)c1.O=S(=O)([N-]S(=O)(=O)C(F)(F)F)C(F)(F)F
surface tension liquid-gas ([1]; x1 = 0.2156): 33.53 ± 1.1 mN/m | surface tension liquid-gas ([1]; x1 = 0.4069): 33.9 ± 1.1 mN/m | surface tension liquid-gas ([1]; x1 = 0.4988): 34.08 ± 1.1 mN/m | surface tension liquid-gas ([1]; x1 = 0.5955): 34.28 ± 1.1 mN/m | surface tension liquid-gas ([1]; x1 = 0.7958): 34.71 ± 1.1 mN/m | surface tension liquid-gas ([1]; x1 = 1): 35.17 ± 1.1 mN/m | mass density ([1]; x1 = 0.2156): 1432.9 ± 2.1 kg/m3 | mass density ([1]; x1 = 0.4069): 1428.5 ± 2.1 kg/m3 | mass density ([1]; x1 = 0.4988): 1426.2 ± 2.1 kg/m3 | mass density ([1]; x1 = 0.5955): 1423.7 ± 2.1 kg/m3 | mass density ([1]; x1 = 0.7958): 1417.9 ± 2.1 kg/m3 | mass density ([1]; x1 = 1): 1411.4 ± 2.1 kg/m3

CCC[N+]1(C)CCCC1.O=S(=O)([N-]S(=O)(=O)C(F)(F)F)C(F)(F)F + CCCC[n+]1ccn(C)c1.O=S(=O)([N-]S(=O)(=O)C(F)(F)F)C(F)(F)F
surface tension liquid-gas ([1]; x1 = 0.2094): 33.63 ± 1.1 mN/m | surface tension liquid-gas ([1]; x1 = 0.3935): 34.04 ± 1.1 mN/m | surface tension liquid-gas ([1]; x1 = 0.5004): 34.27 ± 1.1 mN/m | surface tension liquid-gas ([1]; x1 = 0.5943): 34.48 ± 1.1 mN/m | surface tension liquid-gas ([1]; x1 = 0.7854): 34.89 ± 1.1 mN/m | surface tension liquid-gas ([1]; x1 = 1): 35.35 ± 1.1 mN/m | mass density ([1]; x1 = 0.2094): 1436.9 ± 2.1 kg/m3 | mass density ([1]; x1 = 0.3935): 1436.4 ± 2.1 kg/m3 | mass density ([1]; x1 = 0.5004): 1435.9 ± 2.1 kg/m3 | mass density ([1]; x1 = 0.5943): 1435.4 ± 2.1 kg/m3 | mass density ([1]; x1 = 0.7854): 1433.9 ± 2.1 kg/m3 | mass density ([1]; x1 = 1): 1431.7 ± 2.1 kg/m3

CCC[N+]1(C)CCCC1.O=S(=O)([N-]S(=O)(=O)C(F)(F)F)C(F)(F)F
surface tension liquid-gas [2]: 35.35 ± 1.1 mN/m | mass density [2]: 1431.7 ± 2.1 kg/m3

CCC[n+]1cccc(C)c1.O=S(=O)([N-]S(=O)(=O)C(F)(F)F)C(F)(F)F + CCCC[n+]1ccn(C)c1.O=S(=O)([N-]S(=O)(=O)C(F)(F)F)C(F)(F)F
surface tension liquid-gas ([1]; x1 = 0.2093): 33.42 ± 1.1 mN/m | surface tension liquid-gas ([1]; x1 = 0.3996): 33.73 ± 1.1 mN/m | surface tension liquid-gas ([1]; x1 = 0.4995): 33.91 ± 1.1 mN/m | surface tension liquid-gas ([1]; x1 = 0.6047): 34.12 ± 1.1 mN/m | surface tension liquid-gas ([1]; x1 = 0.8024): 34.55 ± 1.1 mN/m | surface tension liquid-gas ([1]; x1 = 1): 35.02 ± 1.1 mN/m | mass density ([1]; x1 = 0.2093): 1440.2 ± 2.1 kg/m3 | mass density ([1]; x1 = 0.3996): 1442.9 ± 2.1 kg/m3 | mass density ([1]; x1 = 0.4995): 1444.2 ± 2.1 kg/m3 | mass density ([1]; x1 = 0.6047): 1445.5 ± 2.1 kg/m3 | mass density ([1]; x1 = 0.8024): 1447.7 ± 2.1 kg/m3 | mass density ([1]; x1 = 1): 1449.7 ± 2.1 kg/m3

CCCC[n+]1ccn(C)c1.O=S(=O)([N-]S(=O)(=O)C(F)(F)F)C(F)(F)F
surface tension liquid-gas [2]: 33.15 ± 1.1 mN/m | mass density [2]: 1436.9 ± 2.1 kg/m3

CCCCn1cc[n+](C)c1C.O=S(=O)([N-]S(=O)(=O)C(F)(F)F)C(F)(F)F + CCCC[n+]1ccn(C)c1.O=S(=O)([N-]S(=O)(=O)C(F)(F)F)C(F)(F)F
surface tension liquid-gas ([1]; x1 = 0.2193): 33.38 ± 1.1 mN/m | surface tension liquid-gas ([1]; x1 = 0.3981): 33.59 ± 1.1 mN/m | surface tension liquid-gas ([1]; x1 = 0.4962): 33.72 ± 1.1 mN/m | surface tension liquid-gas ([1]; x1 = 0.5995): 33.87 ± 1.1 mN/m | surface tension liquid-gas ([1]; x1 = 0.7896): 34.16 ± 1.1 mN/m | surface tension liquid-gas ([1]; x1 = 1): 34.5 ± 1.1 mN/m | mass density ([1]; x1 = 0.2193): 1433.8 ± 2.1 kg/m3 | mass density ([1]; x1 = 0.3981): 1431.2 ± 2.1 kg/m3 | mass density ([1]; x1 = 0.4962): 1429.6 ± 2.1 kg/m3 | mass density ([1]; x1 = 0.5995): 1428 ± 2.1 kg/m3 | mass density ([1]; x1 = 0.7896): 1424.9 ± 2.1 kg/m3 | mass density ([1]; x1 = 1): 1421.2 ± 2.1 kg/m3

CCCC[n+]1ccn(C)c1.O=S(=O)([N-]S(=O)(=O)C(F)(F)F)C(F)(F)F + CCC[N+]1(C)CCCC1.O=S(=O)([N-]S(=O)(=O)C(F)(F)F)C(F)(F)F
surface tension liquid-gas ([1]; x2 = 0): 33.15 ± 1.1 mN/m | mass density ([1]; x2 = 0): 1436.9 ± 2.1 kg/m3

CCC[N+]1(C)CCCCC1.O=S(=O)([N-]S(=O)(=O)C(F)(F)F)C(F)(F)F
surface tension liquid-gas [2]: 35.17 ± 1.1 mN/m | mass density [2]: 1411.4 ± 2.1 kg/m3

CCCC[n+]1ccn(C)c1.O=S(=O)([N-]S(=O)(=O)C(F)(F)F)C(F)(F)F + CCC[n+]1cccc(C)c1.O=S(=O)([N-]S(=O)(=O)C(F)(F)F)C(F)(F)F
surface tension liquid-gas ([1]; x2 = 0): 33.15 ± 1.1 mN/m | mass density ([1]; x2 = 0): 1436.9 ± 2.1 kg/m3

CCC[n+]1cccc(C)c1.O=S(=O)([N-]S(=O)(=O)C(F)(F)F)C(F)(F)F
surface tension liquid-gas [2]: 35.02 ± 1.1 mN/m | mass density [2]: 1449.7 ± 2.1 kg/m3

CCCC[n+]1ccn(C)c1.O=S(=O)([N-]S(=O)(=O)C(F)(F)F)C(F)(F)F + CCCCn1cc[n+](C)c1C.O=S(=O)([N-]S(=O)(=O)C(F)(F)F)C(F)(F)F
surface tension liquid-gas ([1]; x2 = 0): 33.15 ± 1.1 mN/m | mass density ([1]; x2 = 0): 1436.9 ± 2.1 kg/m3

CCCC[n+]1ccn(C)c1.O=S(=O)([N-]S(=O)(=O)C(F)(F)F)C(F)(F)F + CCC[N+]1(C)CCCCC1.O=S(=O)([N-]S(=O)(=O)C(F)(F)F)C(F)(F)F
surface tension liquid-gas ([1]; x2 = 0): 33.15 ± 1.1 mN/m | mass density ([1]; x2 = 0): 1436.9 ± 2.1 kg/m3

CCCCn1cc[n+](C)c1C.O=S(=O)([N-]S(=O)(=O)C(F)(F)F)C(F)(F)F
surface tension liquid-gas [2]: 34.5 ± 1.1 mN/m | mass density [2]: 1421.2 ± 2.1 kg/m3
